Results taken from ChEMBL document CHEMBL1201861, “Genomics of Drug Sensitity in Cancer screening data, Wellcome Trust Sanger Institute”.

What was measured:
Experiment in all cases: cells
[1] = system: COLO-741; format: functional, cell-based; details: Homo sapiens
Description: SANGER: Inhibition of human COLO-741 cell growth in a cell viability assay.

[2] = system: COR-L105; format: functional, cell-based; details: Homo sapiens;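 also: cell growth inhibition determined with a viability assay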
Description: SANGER: Inhibition of human COR-L105 cell growth in a cell viability assay.

[3] = system: CP66-MEL; format: functional, cell-based; details: Homo sapiens;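 also: growth inhibition of CP66-MEL cells determined in a cell viability assay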
Description: SANGER: Inhibition of human CP66-MEL cell growth in a cell viability assay.

[4] = system: Calu-3; format: functional, cell-based; details: Homo sapiens;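 also: growth inhibition of human Calu-3 cells, determined with a cell viability assay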
Description: SANGER: Inhibition of human Calu-3 cell growth in a cell viability assay.

[5] = system: DU-145; format: functional, cell-based; details: Homo sapiens
Description: SANGER: Inhibition of human DU-145 cell growth in a cell viability assay.

[6] = system: EHEB; format: functional, cell-based; details: Homo sapiens;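 also: growth inhibition of human EHEB cells, read out with a cell viability assay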
Description: SANGER: Inhibition of human EHEB cell growth in a cell viability assay.

[7] = system: EVSA-T; format: functional, cell-based, Homo sapiens; details: Homo sapiens, EVSA-T;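 also: growth inhibition of EVSA-T cells, read out with a cell viability assay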
Description: SANGER: Inhibition of human EVSA-T cell growth in a cell viability assay.

[8] = system: HCC1937; format: functional, cell-based; details: Homo sapiens;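 also: growth inhibition measured with a cell viability read-out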
Description: SANGER: Inhibition of human HCC1937 cell growth in a cell viability assay.

[9] = system: HCT-116; format: functional, cell-based; details: Homo sapiens
Description: SANGER: Inhibition of human HCT-116 cell growth in a cell viability assay.

[10] = system: HO-1-N-1; format: functional, cell-based; details: Homo sapiens;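 also: growth inhibition of human HO-1-N-1 cells, read out with a cell viability assay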
Description: SANGER: Inhibition of human HO-1-N-1 cell growth in a cell viability assay.

[11] = system: HuP-T4; format: functional, cell-based; details: Homo sapiens;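 also: cell viability assay measuring how much HuP-T4 cell growth is inhibited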
Description: SANGER: Inhibition of human HuP-T4 cell growth in a cell viability assay.

[12] = system: KYSE-410; format: functional, cell-based; details: Homo sapiens;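 also: growth inhibition of KYSE-410 cells, measured through a cell viability readout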
Description: SANGER: Inhibition of human KYSE-410 cell growth in a cell viability assay.

[13] = system: KYSE-520 cell line; format: functional, cell-based; details: Homo sapiens;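 also: growth inhibition of human KYSE-520 cells, read out with a viability assay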
Description: SANGER: Inhibition of human KYSE-520 cell growth in a cell viability assay.

[14] = system: M14; format: functional, cell-based; details: Homo sapiens;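 also: growth inhibition of M14 cells, read out with a cell viability assay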
Description: SANGER: Inhibition of human M14 cell growth in a cell viability assay.

[15] = system: MC-CAR; format: functional, cell-based, Homo sapiens; details: Homo sapiens, MC-CAR;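 also: growth inhibition of the human MC-CAR cell line, read out by a cell viability assay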
Description: SANGER: Inhibition of human MC-CAR cell growth in a cell viability assay.

[16] = system: MC-IXC; format: functional, cell-based; details: Homo sapiens;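 also: growth inhibition of MC-IXC cells, read out with a cell viability assay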
Description: SANGER: Inhibition of human MC-IXC cell growth in a cell viability assay.

[17] = system: MDA-MB-175-VII; format: functional, cell-based; details: Homo sapiens
[18] = system: MDA-MB-231; format: functional, cell-based; details: Homo sapiens
Description: SANGER: Inhibition of human MDA-MB-231 cell growth in a cell viability assay.

[19] = system: MKN-7; format: functional, cell-based; details: Homo sapiens;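 also: growth inhibition of MKN-7 cells, read out with a cell viability assay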
Description: SANGER: Inhibition of human MKN7 cell growth in a cell viability assay.

[20] = system: MONO-MAC-6; format: functional, cell-based, Homo sapiens; details: Homo sapiens, MONO-MAC-6;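 also: cell viability assay measuring growth inhibition of human MONO-MAC-6 cells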
Description: SANGER: Inhibition of human MONO-MAC-6 cell growth in a cell viability assay.

[21] = system: NALM-6; format: functional, cell-based, Homo sapiens; details: Homo sapiens, NALM-6;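 also: growth inhibition of NALM-6 cells, read out with a cell viability assay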
Description: SANGER: Inhibition of human NALM-6 cell growth in a cell viability assay.

[22] = system: NB12; format: functional, cell-based; details: Homo sapiens;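 also: growth inhibition of human NB12 cells, read out by a cell viability assay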
Description: SANGER: Inhibition of human NB12 cell growth in a cell viability assay.

[23] = system: NCI-H1417; format: functional, cell-based, Homo sapiens; details: Homo sapiens, NCI-H1417;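 also: human NCI-H1417 cells, growth inhibition determined with a cell viability readout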
Description: SANGER: Inhibition of human NCI-H1417 cell growth in a cell viability assay.

[24] = system: NCI-H1792; format: functional, cell-based; details: Homo sapiens;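 also: growth inhibition of human NCI-H1792 cells, read out as cell viability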
Description: SANGER: Inhibition of human NCI-H1792 cell growth in a cell viability assay.

[25] = system: NCI-H2196; format: functional, cell-based, Homo sapiens; details: Homo sapiens, NCI-H2196; read-out: IC50;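 also: cell viability assay used as the readout of growth inhibition in NCI-H2196 cells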
Description: SANGER: Inhibition of human NCI-H2196 cell growth in a cell viability assay.

[26] = system: NCI-H2405; format: functional, cell-based; details: Homo sapiens;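 also: growth inhibition of the human cell line, read out with a cell viability assay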
Description: SANGER: Inhibition of human NCI-H2405 cell growth in a cell viability assay.

[27] = system: NCI-H345; format: functional, cell-based, Homo sapiens; details: Homo sapiens, NCI-H345;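 also: growth inhibition of NCI-H345 cells measured with a cell viability assay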
Description: SANGER: Inhibition of human NCI-H345 cell growth in a cell viability assay.

[28] = system: NCI-H719; format: functional, cell-based, Homo sapiens; details: Homo sapiens, NCI-H719;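 also: growth inhibition of the cultured cell line, read out with a viability assay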
Description: SANGER: Inhibition of human NCI-H719 cell growth in a cell viability assay.

[29] = system: NCI-H889; format: functional, cell-based, Homo sapiens; details: Homo sapiens, NCI-H889;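 also: cell growth inhibition of the cell line, read out with a viability assay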
Description: SANGER: Inhibition of human NCI-H889 cell growth in a cell viability assay.

[30] = system: OAW-42; format: functional, cell-based; details: Homo sapiens;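 also: growth inhibition of OAW-42 cells, read out with a cell viability assay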
Description: SANGER: Inhibition of human OAW-42 cell growth in a cell viability assay.

[31] = system: OE33; format: functional, cell-based; details: Homo sapiens;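 also: growth inhibition of human OE33 cells, measured by a cell viability assay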
Description: SANGER: Inhibition of human OE33 cell growth in a cell viability assay.

[32] = system: OVCAR-8; format: functional, cell-based; details: Homo sapiens;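 also: growth inhibition of human OVCAR-8 cells, read out by a cell viability assay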
Description: SANGER: Inhibition of human OVCAR-8 cell growth in a cell viability assay.

[33] = system: PA-1; format: functional, cell-based; details: Homo sapiens;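 also: IC50 for suppression of PA-1 cell proliferation, determined with a cell viability read-out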
Description: SANGER: Inhibition of human PA-1 cell growth in a cell viability assay.

[34] = system: PANC-03-27; format: functional, cell-based; details: Homo sapiens
Description: SANGER: Inhibition of human PANC-03-27 cell growth in a cell viability assay.

[35] = system: PFSK-1; format: functional, cell-based; details: Homo sapiens;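 also: cell viability assay measuring how strongly compounds suppress growth of human PFSK-1 cells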
Description: SANGER: Inhibition of human PFSK-1 cell growth in a cell viability assay.

[36] = system: RMG-I; format: functional, cell-based; details: Homo sapiens;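 also: growth inhibition of human RMG-I cells, read out with a cell viability assay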
Description: SANGER: Inhibition of human RMG-I cell growth in a cell viability assay.

[37] = system: RT-112; format: functional, cell-based; details: Homo sapiens
Description: SANGER: Inhibition of human RT-112 cell growth in a cell viability assay.

[38] = system: Raji; format: functional, cell-based, Homo sapiens; details: Homo sapiens, Raji;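 also: cell viability assay measuring inhibition of Raji cell growth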
Description: SANGER: Inhibition of human Raji cell growth in a cell viability assay.

[39] = system: SCLC-21H; format: functional, cell-based, Homo sapiens; details: Homo sapiens, SCLC-21H;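 also: growth inhibition of cultured human SCLC-21H cells, read out with a cell viability assay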
Description: SANGER: Inhibition of human SCLC-21H cell growth in a cell viability assay.

[40] = system: SF-295; format: functional, cell-based; details: Homo sapiens;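 also: growth inhibition of SF-295 cells, read out with a cell viability assay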
Description: SANGER: Inhibition of human SF295 cell growth in a cell viability assay.

[41] = system: SNU-449; format: functional, cell-based; details: Homo sapiens
Description: SANGER: Inhibition of human SNU-449 cell growth in a cell viability assay.

[42] = system: T-24; format: functional, cell-based; details: Homo sapiens;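 also: growth inhibition of T-24 cells, read out with a cell viability assay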
Description: SANGER: Inhibition of human T-24 cell growth in a cell viability assay.

[43] = system: T47D; format: functional, cell-based; details: Homo sapiens;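 also: growth inhibition of human T47D cells, measured with a cell viability assay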
Description: SANGER: Inhibition of human T47D cell growth in a cell viability assay.

[44] = system: 8305C; format: functional, cell-based; details: Homo sapiens
Description: SANGER: Inhibition of human 8305C cell growth in a cell viability assay.

[45] = system: A2058; format: functional, cell-based; details: Homo sapiens;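 also: reduction of A2058 cell growth, read out with a viability assay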
Description: SANGER: Inhibition of human A2058 cell growth in a cell viability assay.

[46] = system: A-427; format: functional, cell-based; details: Homo sapiens;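 also: growth inhibition of human A-427 cells, read out by a cell viability assay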
Description: SANGER: Inhibition of human A427 cell growth in a cell viability assay.

[47] = system: ARH-77; format: functional, cell-based, Homo sapiens; details: Homo sapiens, ARH-77;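 also: growth inhibition of ARH-77 cells, read out by a cell viability assay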
Description: SANGER: Inhibition of human ARH-77 cell growth in a cell viability assay.

[48] = system: ASPC1; format: functional, cell-based; details: Homo sapiens;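 also: growth inhibition of AsPC-1 cells, read out with a cell viability assay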
Description: SANGER: Inhibition of human AsPC-1 cell growth in a cell viability assay.

[49] = system: BCPAP; format: functional, cell-based; details: Homo sapiens;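 also: growth inhibition of BCPAP cells, read out in a cell viability assay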
Description: SANGER: Inhibition of human BCPAP cell growth in a cell viability assay.

[50] = system: BHT-101; format: functional, cell-based; details: Homo sapiens
Description: SANGER: Inhibition of human BHT-101 cell growth in a cell viability assay.

[51] = system: BOKU; format: functional, cell-based; details: Homo sapiens;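 also: growth inhibition of the human BOKU cell line, read out by a cell viability assay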
Description: SANGER: Inhibition of human BOKU cell growth in a cell viability assay.

[52] = system: C3A; format: functional, cell-based; details: Homo sapiens;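 also: growth inhibition of C3A human cells, quantified with a cell viability readout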
Description: SANGER: Inhibition of human C3A cell growth in a cell viability assay.

[53] = system: CAKI-1; format: functional, cell-based; details: Homo sapiens;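 also: growth inhibition of CAKI-1 cells, measured by a cell viability assay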
Description: SANGER: Inhibition of human CAKI-1 cell growth in a cell viability assay.

[54] = system: CAL-27; format: functional, cell-based; details: Homo sapiens;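 also: Viability-based readout, IC50 reflecting inhibition of CAL-27 cell growth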
Description: SANGER: Inhibition of human CAL-27 cell growth in a cell viability assay.

[55] = system: CAL-62; format: functional, cell-based; details: Homo sapiens;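 also: growth inhibition of CAL-62 cells, read out with a cell viability assay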
Description: SANGER: Inhibition of human CAL-62 cell growth in a cell viability assay.

[56] = system: U-698-M; format: functional, cell-based, Homo sapiens; details: Homo sapiens, U-698-M
Description: SANGER: Inhibition of human U-698-M cell growth in a cell viability assay.

[57] = system: UACC-812; format: functional, cell-based; details: Homo sapiens
Description: SANGER: Inhibition of human UACC-812 cell growth in a cell viability assay.

[58] = system: WM-115; format: functional, cell-based; details: Homo sapiens
Description: SANGER: Inhibition of human WM-115 cell growth in a cell viability assay.

[59] = system: COLO-679; format: functional, cell-based; details: Homo sapiens
Description: SANGER: Inhibition of human COLO-679 cell growth in a cell viability assay.

CCCCCCCCCCCC1=C(O)C(=O)C=C(O)C1=O [EMBELIN]
IC50 [1]: 7.42 µM | IC50 [2]: 22.3 µM | IC50 [3]: 4.51 µM | IC50 [4]: 8.45 µM | IC50 [5]: 8.76 µM | IC50 [6]: > 32 µM | IC50 [7]: > 32 µM | IC50 [8]: 8.63 µM | IC50 [9]: 28.5 µM | IC50 [10]: 12.3 µM | IC50 [11]: 7.56 µM | IC50 [12]: 6.38 µM | IC50 [13]: 18.5 µM | IC50 [14]: 11 µM | IC50 [15]: 4.58 µM | IC50 [16]: 5.39 µM | IC50 [17]: > 32 µM | IC50 [18]: 21.8 µM | IC50 [19]: > 32 µM | IC50 [20]: 21.8 µM | IC50 [21]: 9.09 µM | IC50 [22]: 8.23 µM | IC50 [23]: > 32 µM | IC50 [24]: 23.1 µM | IC50 [25]: > 32 µM | IC50 [26]: 8 µM | IC50 [27]: > 32 µM | IC50 [28]: > 32 µM | IC50 [29]: > 32 µM | IC50 [30]: > 32 µM | IC50 [31]: 13.3 µM | IC50 [32]: 11.3 µM | IC50 [33]: 2.32 µM | IC50 [34]: > 32 µM | IC50 [35]: 14 µM | IC50 [36]: 9.24 µM | IC50 [37]: 12.6 µM | IC50 [38]: 10.5 µM | IC50 [39]: > 32 µM | IC50 [40]: 1.75 µM | IC50 [41]: 16.5 µM | IC50 [42]: > 32 µM | IC50 [43]: > 32 µM | IC50 [44]: 25.7 µM | IC50 [45]: 2.32 µM | IC50 [46]: > 32 µM | IC50 [47]: 16.4 µM | IC50 [48]: > 32 µM | IC50 [49]: 13.7 µM | IC50 [50]: 20 µM | IC50 [51]: 10.7 µM | IC50 [52]: 15.4 µM | IC50 [53]: > 32 µM | IC50 [54]: 13.1 µM | IC50 [55]: 23.3 µM | IC50 [56]: 25.2 µM | IC50 [57]: > 32 µM | IC50 [58]: 13.8 µM | IC50 [59]: 4.2 µM

OC[C@H](Cc1ccccc1)Nc1nc(Oc2ccc3c(c2)CCC3)nc2c1ncn2Cc1ccc(-c2ccccc2)cc1
IC50 [1]: > 10.2 µM | IC50 [2]: > 10.2 µM | IC50 [3]: > 10.2 µM | IC50 [4]: > 10.2 µM | IC50 [5]: 7.86 µM | IC50 [6]: > 10.2 µM | IC50 [7]: > 10.2 µM | IC50 [8]: > 10.2 µM | IC50 [9]: > 10.2 µM | IC50 [10]: > 10.2 µM | IC50 [11]: 7.07 µM | IC50 [12]: 6.97 µM | IC50 [13]: > 10.2 µM | IC50 [14]: > 10.2 µM | IC50 [15]: > 10.2 µM | IC50 [16]: > 10.2 µM | IC50 [17]: > 10.2 µM | IC50 [18]: > 10.2 µM | IC50 [19]: > 10.2 µM | IC50 [20]: > 10.2 µM | IC50 [21]: 3.51 µM | IC50 [22]: > 10.2 µM | IC50 [23]: > 10.2 µM | IC50 [24]: > 10.2 µM | IC50 [25]: > 10.2 µM | IC50 [26]: > 10.2 µM | IC50 [27]: > 10.2 µM | IC50 [28]: > 10.2 µM | IC50 [29]: > 10.2 µM | IC50 [30]: > 10.2 µM | IC50 [31]: > 10.2 µM | IC50 [32]: > 10.2 µM | IC50 [33]: > 10.2 µM | IC50 [34]: 7.89 µM | IC50 [35]: > 10.2 µM | IC50 [36]: > 10.2 µM | IC50 [37]: > 10.2 µM | IC50 [38]: > 10.2 µM | IC50 [39]: > 10.2 µM | IC50 [40]: 3.23 µM | IC50 [41]: 1.09 µM | IC50 [42]: > 10.2 µM | IC50 [43]: > 10.2 µM | IC50 [44]: 2.76 µM | IC50 [45]: > 10.2 µM | IC50 [46]: > 10.2 µM | IC50 [47]: > 10.2 µM | IC50 [48]: > 10.2 µM | IC50 [49]: > 10.2 µM | IC50 [50]: > 10.2 µM | IC50 [51]: > 10.2 µM | IC50 [52]: > 10.2 µM | IC50 [53]: > 10.2 µM | IC50 [54]: > 10.2 µM | IC50 [55]: 9.44 µM | IC50 [56]: > 10.2 µM | IC50 [57]: > 10.2 µM | IC50 [58]: > 10.2 µM | IC50 [59]: 2.66 µM
